According to patent publication US20200407700A1, “COMPOSITIONS OF PARP14 MODULATORS AND/OR MUTANTS AND THERAPEUTIC USE THEREOF” (President and Fellows of Harvard College, priority 2018, published 2020):
Entries after “also recorded” stand apart in the source; their conditions may differ.

Columns and labels:
[1] = test system: bone marrow derived macrophages (BMDMs); test: NAD^+ levels in LPS-treated bone marrow derived macrophages (enzyme-coupled luciferase assay); type: cell-based, mouse; conditions: for LPS-induced drop in NAD^+ levels / protection of NAD^+ levels in macrophages exposed to LPS: BMDMs; for LPS-induced drop in NAD^+ levels: 6 hours of treatment, in the presence of LPS
Excerpt: FIG. 2 contains 13 panels, 2A-2M, depicting that PARP14 is necessary for LPS-induced NAD^+ destruction. FIG. 2A-2C show NAD^+ levels in response to LPS in wild-type or (FIG. 2A) CD38KO, (FIG. 2B) SARM1KO, and (FIG. 2C) PARP1KO BMDMs. […] FIGS. 2K and 2L show NAD^+ (2K) and NADH levels (2L) in PARP14KO BMDMs.
FIG. 3 contains 6 panels, 3A-3F, depicting PARP14 catalytic mechanism. […] FIG. 3E depicts NAD^+ levels after treatment with NSC-61610. FIG. 3F depicts NAD^+ levels after treatment with NSC-127133 and LPS.
NAD^+ levels rapidly decline upon LPS-activation in bone marrow derived macrophages (BMDMs). […] NAD^+ and NADH levels recover after about 24 hours (FIG. 1A-1B). […] Using a genetically-encoded fluorescent reporter in RAW264.7 immortalized macrophages (FIG. 1C), it was confirmed that these changes occur in all three major compartments of the cell. Mass spectrometry-based metabolomics in BMDMs were performed which confirmed that an increase in NAD^+ hydrolysis is driving the phenomenon (FIG. 1D-1E). Additional experiments using flux metabolomics in collaboration with Professor Marie Migaud at the University of South Alabama may be used in order to determine the rates of consumption and salvage of NAD^+, before and after treatment with LPS. In such experiments, isotopically-labeled NMN (an NAD^+ precursor) are synthesized with labels on the phosphate, ribose, and nicotinamide groups, which allows tracing of multiple downstream metabolites.

elderly mice = conditions: cited from earlier work
influenza = conditions: via a different mechanism; cited from earlier work
[2] = test system: inflammasome (caspase-1 cleavage); test: Inflammasome activation measured by Caspase 1 cleavage (Casp-1 p20); type: cell-based; conditions: only somewhat reproducible
Excerpt: (§1) FIG. 4 contains 5 panels, 4A-4E, depicting that NAD^+ decline promotes inflammasome activation. FIG. 4A-4D show secretion of (FIG. 4A) IL-1β, (FIG. 4B) IL-18, (FIG. 4C) IL-6, and (FIG. 4D) TNF in response to LPS and nigericin, without and with NMN.
One hallmark of inflammasome activation is cleavage of caspase-1 to generate a 20 kD peptide.

BMDM = test: Polar metabolomics on BMDM extracts; type: cell-based, mouse
Protocol: (§2) Polar metabolomics on BMDM extracts treated with LPS, OUL35, and NRH were performed. […] Recently, Prof. Marcia Haigis (HMS) published that Sirt3, an NAD^+-sensor, regulates nucleotide metabolism (Gonzalez Herrera et al., 2018). While an increase in nucleotides could promote DNA synthesis, macrophages are reported to suppress the cell cycle in response to LPS. However, macrophages do upregulate reactive oxygen species (ROS) production for bactericidal purposes in response to LPS, and two purines—hypoxanthine and xanthine—are important for this ROS production via the enzyme xanthine oxidase (XO). With the hypothesis that macrophages increase these metabolites for increased ROS production in mind, PARPi and NRH suppress nigericin-induced ROS production, although this experiment must be repeated (FIG. 12O).

spleen NAD+ levels = test: NAD^+ levels in aged spleens after I.P. injection; type: in vivo; conditions: 27 month old mice, 20 mg/kg intraperitoneally, 2 hours post-injection
Protocol: 27 month old mice were injected intraperitoneally with 20 mg/kg of OUL35 dissolved in PBS with 40% HP-beta-cyclodextrin and 1% carboxymethylcellulose. Spleens were collected 2 hours post-injection and assayed for NAD+ levels.

PARP1 = PARP1 (Homo sapiens, UniProt P09874); conditions: cited from earlier work
PARP1, sequence (P09874 whole entry, species assumed): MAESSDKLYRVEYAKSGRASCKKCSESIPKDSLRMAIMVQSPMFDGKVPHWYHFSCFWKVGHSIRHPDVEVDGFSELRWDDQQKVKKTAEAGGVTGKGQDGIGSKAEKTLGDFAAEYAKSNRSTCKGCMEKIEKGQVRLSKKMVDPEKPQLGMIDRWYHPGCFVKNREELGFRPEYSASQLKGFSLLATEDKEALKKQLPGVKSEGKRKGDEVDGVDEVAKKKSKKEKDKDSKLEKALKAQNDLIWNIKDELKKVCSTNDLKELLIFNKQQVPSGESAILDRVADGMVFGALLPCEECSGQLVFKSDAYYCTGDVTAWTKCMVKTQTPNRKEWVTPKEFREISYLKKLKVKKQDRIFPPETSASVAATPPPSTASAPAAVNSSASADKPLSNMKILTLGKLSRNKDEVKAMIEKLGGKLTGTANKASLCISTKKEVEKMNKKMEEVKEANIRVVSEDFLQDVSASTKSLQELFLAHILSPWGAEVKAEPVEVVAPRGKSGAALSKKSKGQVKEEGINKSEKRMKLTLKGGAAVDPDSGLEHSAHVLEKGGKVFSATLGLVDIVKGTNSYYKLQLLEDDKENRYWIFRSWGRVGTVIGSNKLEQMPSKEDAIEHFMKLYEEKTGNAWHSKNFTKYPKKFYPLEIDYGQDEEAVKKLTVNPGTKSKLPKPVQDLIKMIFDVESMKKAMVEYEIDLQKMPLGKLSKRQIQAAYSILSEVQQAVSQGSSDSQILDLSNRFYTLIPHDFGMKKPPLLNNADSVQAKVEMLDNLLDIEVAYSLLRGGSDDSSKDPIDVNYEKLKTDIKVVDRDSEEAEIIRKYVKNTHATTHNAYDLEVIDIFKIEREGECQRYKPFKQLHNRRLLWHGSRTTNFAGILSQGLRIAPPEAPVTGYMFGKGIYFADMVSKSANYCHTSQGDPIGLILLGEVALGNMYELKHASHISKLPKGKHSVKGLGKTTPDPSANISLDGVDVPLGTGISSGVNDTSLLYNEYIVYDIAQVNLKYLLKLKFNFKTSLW

PARPs 4, 10, 14, and 16 = conditions: cited from earlier work
[3] = test system: poly-ADP-ribose (PAR) levels; test: Poly-ADP-ribose (PAR) levels in LPS-treated macrophages; type: cell-based; conditions: NAD+ repletion
Excerpt: NMN, which raises levels of NAD^+, can suppress secretion of IL-1β and IL-18. […] The most robust observation seen is a restoration of poly-ADP-ribose (PAR) levels (FIG. 11B). While this is clearly an effect of restoring NAD^+ levels, its significance on macrophage function is unclear. […] Inflammatory gene expression may be altered, but this must be repeated with an increased N-value (FIG. 11D-F).

[4] = test system: reactive oxygen species (ROS) production; test: Nigericin-induced ROS production in macrophages; type: cell-based; conditions: 30 min nigericin treatment; preliminary, must be repeated
Protocol: as §2

LPS induced sepsis = test: LPS-induced sepsis (I.P. injection of LPS); type: in vivo; conditions: mice
Protocol: One common assay to measure inflammation in vivo is with LPS induced sepsis, whereby LPS is injected intraperitoneally, resulting in a lethal cytokine storm. Drugs or mutations that suppress inflammation increase survival. Mice euthanized 6 hours after LPS injection show in increase in PARP14 levels in multiple tissues (FIG. 13A-D). NAD^+ levels fall in multiple tissues, and in at least in spleen, NAD^+ levels can be protected with a co-injection of PARPi and NRH (FIG. 13E).

[5] = test system: secretion of IL-1β, IL-18, IL-6 and TNF; test: Cytokine secretion in response to LPS and nigericin; type: cell-based
Excerpt: as §1
IL-1β and IL-18 are unique cytokines in that they require activation of an inflammasome to be processed for release.

NC(=O)c1cccc(N)c1 [3-aminobenzimide]
LPS-induced drop in NAD^+ levels [1]: completely blocked | raise NAD^+ levels in activated macrophages, compared with NMN [1]: beyond NMN

NC(=O)c1ccc[n+]([C@@H]2O[C@H](CO)[C@@H](O)[C@H]2O)c1 [NR, nicotinamide riboside]
metabolism and aspects of ageing (elderly mice): improve metabolism and reverse aspects of ageing

CCOc1ccccc1Cl [NSC-61610]
LPS-induced drop in NAD^+ levels [1]: able to block the fall | raise NAD^+ levels in activated macrophages, compared with NMN [1]: beyond NMN | effect in a model of influenza (influenza): anti-inflammatory

NC(=O)c1ccc(Oc2ccc(C(N)=O)cc2)cc1 [OUL35]
LPS-induced drop in NAD^+ levels [1]: blocked the drop | raise NAD^+ levels in activated macrophages, compared with NMN [1]: beyond NMN | cleavage of caspase-1 (inflammasome activation) [2]: suppress | metabolite changes induced by LPS (BMDM): blunt the changes induced by LPS | NAD^+ levels in aged spleens (spleen NAD+ levels): raises NAD^+ levels | activity against PARP1 (PARP1): no activity | inhibition of PARPs 4, 10, 14, and 16 (PARPs 4, 10, 14, and 16): inhibitor

O=C(O)c1ccccc1-c1ccccc1C(=O)Nc1ccc2c(c1)[nH]c(=O)c1ccccc12 [NSC-127133]
LPS-induced drop in NAD^+ levels [1]: able to block the fall | raise NAD^+ levels in activated macrophages, compared with NMN [1]: beyond NMN

NC(=O)C1=CN([C@@H]2O[C@H](CO)[C@@H](O)[C@H]2O)C=CC1 [NRH, Nicotinamide riboside hydride]
protection of NAD^+ levels in macrophages exposed to LPS [1]: protect; also recorded: more potent protectors | raising NAD^+ levels in BMDMs ([1]; absence and presence of LPS, after 6 hours): extremely potent | cleavage of caspase-1 (inflammasome activation) [2]: suppression of inflammasome activation | poly-ADP-ribose (PAR) levels [3]: restoration | metabolite changes induced by LPS (BMDM): blunt the changes induced by LPS | nigericin-induced ROS production [4]: suppress | NAD^+ levels in spleen (LPS induced sepsis; 6 hours after I.P. injection of LPS, co-injection): protected | survival (LPS induced sepsis; I.P. injection of LPS, vs LPS alone): moderately increased survival

CN(C)CC(=O)Nc1ccc2[nH]c(=O)c3ccccc3c2c1 [PJ-34]
LPS-induced drop in NAD^+ levels [1]: completely blocked | raise NAD^+ levels in activated macrophages, compared with NMN [1]: beyond NMN | cleavage of caspase-1 (inflammasome activation) [2]: suppress

NC(=O)c1ccc[n+]([C@@H]2O[C@H](COP(=O)([O-])O)[C@@H](O)[C@H]2O)c1 [NMN, nicotinamide mononucleotide]
protection of NAD^+ levels in macrophages exposed to LPS [1]: slightly protect | secretion of IL-1β and IL-18 [5]: suppress | secretion of IL-6 or TNF [5]: not | metabolism and aspects of ageing (elderly mice): improve metabolism and reverse aspects of ageing
